# Assay results reported in paper PMC10605077, “In Vitro and In Silico Antiviral Activity of Di-Halogenated Compounds Derived from L-Tyrosine against Human Immunodeficiency Virus 1 (HIV-1)” (Current Issues in Molecular Biology, 2023).
# Test system: HIV-1 BaL (R5)
# Test: Anti-HIV activity in infected TZM-bl cells (luciferase), pre- and post-infection treatment
# Assay type: cell-based, Human Immunodeficiency Virus Type 1 (HIV-1)
smiles,measurement,setting,value
COc1c(Cl)cc(C[C@@H](C(=O)O)N(C)C)cc1Cl [TODC-2M],IC50,"Human immunodeficiency virus 1, BAL, TZM-bl, 48 h, HIV-1 BaL (R5), TZM-bl cells, luciferase",67.4 µM
same,inhibition at 18 µM,"Human immunodeficiency virus 1, BAL, 18 µM, TZM-bl cells, read-out: Percentage inhibition of HIV-1 BaL replication",38%
same,inhibition at 37 µM,"Human immunodeficiency virus 1, BAL, 37 µM, TZM-bl cells, read-out: Percentage inhibition of HIV-1 BaL replication",46.4%
same,inhibition at 75 µM,"Human immunodeficiency virus 1, BAL, 75 µM, TZM-bl cells, read-out: Percentage inhibition of HIV-1 BaL replication",60.5%
same,inhibition at 150 µM,"Human immunodeficiency virus 1, BAL, 150 µM, TZM-bl cells, read-out: Percentage inhibition of HIV-1 BaL replication",61.1%
same,SI,selectivity index against HIV-1 BaL (CC50 and IC50 of Table 3),>4.45
